Counter-ions that a name gives are not always drawn.
Target: T1, human 5-HT4(a) (Homo sapiens, UniProt Q13639)
T1 construct: host or cells: GeneBIAzer HTR4-CRE-bla CHO-K1 cells
Test: Evaluation of agonistic activity in CHO-K1 cells expressing human 5-HT4(a) (GeneBIAzer HTR4-CRE-bla CHO-K1 cells, beta-lactamase fluorescence ratio, EC50 from 8 concentrations)
Assay type: cell-based
Experimental: Evaluation of Agonistic Activity in CHO-K1 Cells Expressing Human 5-HT4(a)
As CHO-K1 cells stably expressing human 5-HT4(a), we used the GeneBIAzer HTR4-CRE-bla CHO-K1 cells (Invitrogen Corp.). The cells were cultured, under the condition of 37° C. and 5% CO2, in a DMEM supplemented with 10% fetal bovine serum (FBS), 25 mM HEPES (pH7.4), 600 μg/ml hygromycin B, 0.1 mM non-essential amino acids, 100 unit/ml penicillin and 100 μg/ml streptomycin. Subcultures were performed three times per one week, each being at less than 80% confluence. At the previous day before treating test compounds, the cells were collected using 0.5% trypsin/EDTA and then diluted with a DMEM supplemented with 1% FBS, 25 mM HEPES, and 0.1 mM non-essential amino acids into 3.125×10^5 cells/ml. 32 μl of the diluted cells were added into 384-well plate (10^4 cells per well) and then incubated overnight. After the overnight culture, 8 μl of the medium having 1% of DMSO was added into the cell-free control well and the non-stimulating control well, respectively. 8 μl of the respective test compound dilutions (which had been prepared by diluting by 100-times with the medium as mentioned in the above) having 1% of DMSO were added to the respective remaining wells. After being cultured in the incubator for 5 hours, the wells of the 384-plate were treated with the substrate solution (8 μl per well) prepared according to the vendor's instruction (i.e., Invitrogen's instruction), and then incubated in the dark room for additional two hours. Agonistic activities on 5-HT4 receptor were evaluated, on the basis of fluorescence values of the cleavage-products by beta-lactamase. After exciting to 410 nm of wavelength using a fluorescence detector (Genios Pro), we measured the fluorescence values at two emission wavelengths (first wavelength: 465 nm, second wavelength: 535 nm). Data were analyzed on the basis of the ratio of fluorescence intensities of each well at the respective wavelengths. Each EC50 value was calculated by non-linear regression analysis using the “GraphPad Prism” program, based on the activities according to 8-different concentrations of the test compounds.

T1 sequence (Q13639 1-387 isoform Q13639-2): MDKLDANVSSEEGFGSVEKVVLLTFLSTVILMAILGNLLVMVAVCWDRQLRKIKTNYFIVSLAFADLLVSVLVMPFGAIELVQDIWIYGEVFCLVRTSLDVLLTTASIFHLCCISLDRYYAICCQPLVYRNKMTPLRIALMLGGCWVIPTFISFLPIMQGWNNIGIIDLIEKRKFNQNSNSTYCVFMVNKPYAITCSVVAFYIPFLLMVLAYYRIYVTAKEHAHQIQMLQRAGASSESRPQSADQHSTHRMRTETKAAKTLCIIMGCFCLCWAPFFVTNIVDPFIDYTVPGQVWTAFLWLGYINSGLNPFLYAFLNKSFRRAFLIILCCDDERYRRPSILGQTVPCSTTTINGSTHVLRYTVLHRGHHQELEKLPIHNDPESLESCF

Q: `CCCCc1cc(N2CCCCC2CCO)nc(Nc2ccc(F)cc2)n1` (centres unmarked) [Example 22, 2-{1-[6-butyl-2-(4-fluorophenylamino)pyrimidin-4-yl]piperidin-2-yl}ethanol] was tested. Which EC50 did it give?
A: 0.19 nM

Q: For `CCCc1cc(N2CCCCC2CCO)nc(Nc2ccc(Cl)c([N+](=O)[O-])c2)n1` (centres unmarked) [Example 24, 2-{1-[2-(4-chloro-3-nitrophenylamino)-6-propylpyrimidin-4-yl]piperidin-2-yl}ethanol], which EC50 is on record?
A: 0.026 nM

Q: `CCCc1cc(N2CCCCC2CCO)nc(Nc2cccc(SC)c2)n1` (centres unmarked) [Example 25, 2-(1-{2-[3-(methylthio)phenylamino]-6-propylpyrimidin-4-yl}piperidin-2-yl)ethanol] was tested. Which EC50 did it give?
A: 0.073 nM

Q: For `CCCc1cc(N2CCCCC2)nc(Nc2ccc(F)c([N+](=O)[O-])c2)n1` [Example 40, N-(4-fluoro-3-nitrophenyl)-4-(piperidin-1-yl)-6-propylpyrimidin-2-amine], which EC50 is on record?
A: 0.26 nM

Q: How did the EC50 turn out when `CCCc1cc(N2CCCCC2)nc(Nc2ccc(Cl)c([N+](=O)[O-])c2)n1` [Example 45, N-(4-chloro-3-nitrophenyl)-4-(piperidin-1-yl)-6-propylpyrimidin-2-amine] was run?
A: 0.27 nM

Q: How did the EC50 turn out when `CCCc1cc(N2CCCCC2)nc(Nc2ccc(C)c([N+](=O)[O-])c2)n1` [Example 47, N-(4-methyl-3-nitrophenyl)-4-(piperidin-1-yl)-6-propylpyrimidin-2-amine] was run?
A: 0.15 nM

Q: How did the EC50 turn out when `CCCc1cc(N2CCCC3CCCCC32)nc(Nc2ccc3cc[nH]c3c2)n1` (centres unmarked) [Example 73, N-[4-(octahydroquinolin-1(2H)-yl)-6-propylpyrimidin-2-yl]-1H-indol-6-amine] was run?
A: 0.24 nM

Q: Which EC50 does the source give for `CCCc1cc(N2CCCCC2CCO)nc(Nc2ccc3cc[nH]c3c2)n1` (centres unmarked) [Example 74, 2-{1-[2-(1H-indol-6-ylamino)-6-propylpyrimidin-4-yl]piperidin-2-yl}ethanol] here?
A: 0.063 nM

Q: For `CCCc1cc(N2CCCCC2)nc(Nc2ccc3cc[nH]c3c2)n1` [Example 76, N-[4-(piperidin-1-yl)-6-propylpyrimidin-2-yl]-1H-indol-6-amine], which EC50 is on record?
A: 0.061 nM

Q: Which EC50 does the source give for `CCCc1cc(N2CCOCC2)nc(Nc2ccc3cc[nH]c3c2)n1` [Example 77, N-(4-morpholino-6-propylpyrimidin-2-yl)-1H-indol-6-amine] here?
A: 0.084 nM

Q: For `CCCc1cc(N2CCCCC2CC)nc(Nc2ccc3cc[nH]c3c2)n1` (centres unmarked) [Example 78, N-[4-(2-ethylpiperidin-1-yl)-6-propylpyrimidin-2-yl]-1H-indol-6-amine], which EC50 is on record?
A: 0.12 nM

Q: With `CCCc1cc(N2CCNC[C@H]2C)nc(Nc2cccc(C#N)c2)n1` [Example 82, (R)-3-[4-(2-methylpiperazin-1-yl)-6-propylpyrimidin-2-ylamino]benzonitrile dihydrochloride] as the molecule, how does the EC50 read?
A: 0.096 nM

Q: For `CCCc1cc(N2CCOCC2)nc(Nc2cccc([N+](=O)[O-])c2)n1` [Example 83, 4-morpholino-N-(3-nitrophenyl)-6-propylpyrimidin-2-amine hydrochloride], which EC50 is on record?
A: 0.36 nM

Q: For `CCCc1cc(N2CCOCC2)nc(Nc2ccc(F)c([N+](=O)[O-])c2)n1` [Example 84, N-(4-fluoro-3-nitrophenyl)-4-morpholino-6-propylpyrimidin-2-amine hydrochloride], which EC50 is on record?
A: 0.27 nM

Q: `CCCc1cc(N2CCCCC2CC)nc(Nc2cccc([N+](=O)[O-])c2)n1` (centres unmarked) [Example 99, 4-(2-ethylpiperidin-1-yl)-N-(3-nitrophenyl)-6-propylpyrimidin-2-amine] was tested. Which EC50 did it give?
A: 0.37 nM

Q: How did the EC50 turn out when `CCCc1cc(N2CCCCC2CC)nc(Nc2ccc(F)c([N+](=O)[O-])c2)n1` (centres unmarked) [Example 100, 4-(2-ethylpiperidin-1-yl)-N-(4-fluoro-3-nitrophenyl)-6-propylpyrimidin-2-amine] was run?
A: 0.2 nM

Q: How did the EC50 turn out when `CCCc1cc(N2CCCCC2CC)nc(Nc2ccc(Cl)c([N+](=O)[O-])c2)n1` (centres unmarked) [Example 101, N-(4-chloro-3-nitrophenyl)-4-(2-ethylpiperidin-1-yl)-6-propylpyrimidin-2-amine] was run?
A: 0.24 nM

Q: Which EC50 does the source give for `CCCc1cc(N2CCCCC2CC)nc(Nc2cccc(OC)c2)n1` (centres unmarked) [Example 102, 4-(2-ethylpiperidin-1-yl)-N-(3-methoxyphenyl)-6-propylpyrimidin-2-amine] here?
A: 0.47 nM

Q: For `CCCc1cc(N2CCCCC2CC)nc(Nc2cccc(SC)c2)n1` (centres unmarked) [Example 104, 4-(2-ethylpiperidin-1-yl)-N-[3-(methylthio)phenyl]-6-propylpyrimidin-2-amine], which EC50 is on record?
A: 0.36 nM

Q: How did the EC50 turn out when `CCCc1cc(N2CCCCC2CC)nc(Nc2ccc3nc(C(F)(F)F)[nH]c3c2)n1` (centres unmarked) [Example 109, N-[4-(2-ethylpiperidin-1-yl)-6-propylpyrimidin-2-yl]-2-(trifluoromethyl)-1H-benzo[d]imidazol-6-amine] was run?
A: 0.32 nM

Q: With `CCCc1cc(N2CCCCC2CC)nc(Nc2cccc(C#N)c2)n1` (centres unmarked) [Example 111, 3-[4-(2-ethylpiperidin-1-yl)-6-propylpyrimidin-2-ylamino]benzonitrile] as the molecule, how does the EC50 read?
A: 0.091 nM

Q: How did the EC50 turn out when `CCCc1cc(N2CCCCC2CC)nc(Nc2cc(OC)ccc2C)n1` (centres unmarked) [Example 112, 4-(2-ethylpiperidin-1-yl)-N-(5-methoxy-2-methylphenyl)-6-propylpyrimidin-2-amine] was run?
A: 0.37 nM

Q: How did the EC50 turn out when `CCCc1cc(N2CCCCC2CC)nc(Nc2cnc3ccccc3c2)n1` (centres unmarked) [Example 114, N-[4-(2-ethylpiperidin-1-yl)-6-propylpyrimidin-2-yl]quinolin-3-amine] was run?
A: 0.31 nM

Q: How did the EC50 turn out when `CCCc1cc(N2CCNC[C@H]2C)nc(Nc2ccc(Cl)c([N+](=O)[O-])c2)n1` [Example 117, (R)-N-(4-chloro-3-nitrophenyl)-4-(2-methylpiperazin-1-yl)-6-propylpyrimidin-2-amine] was run?
A: 0.077 nM

Q: Which EC50 does the source give for `CCCc1cc(N2CCNC[C@H]2C)nc(Nc2ccc3cc[nH]c3c2)n1` [Example 118, (R)-N-[4-(2-methylpiperazin-1-yl)-6-propylpyrimidin-2-yl]-1H-indol-6-amine] here?
A: 0.024 nM

Q: How did the EC50 turn out when `CCCc1cc(N2CCNC[C@H]2C)nc(Nc2cccc(C(F)(F)F)c2)n1` [Example 119] was run?
A: 0.156 nM

Q: How did the EC50 turn out when `CCCc1cc(N2CCNC[C@H]2C)nc(Nc2cccc([N+](=O)[O-])c2)n1` [Example 120] was run?
A: 0.073 nM

Q: How did the EC50 turn out when `CCCc1cc(N2CCNC[C@H]2C)nc(Nc2ccc(F)c([N+](=O)[O-])c2)n1` [Example 121, (R)-N-(4-fluoro-3-nitrophenyl)-4-(2-methylpiperazin-1-yl)-6-propylpyrimidin-2-amine] was run?
A: 0.093 nM

Q: Which EC50 does the source give for `CCCc1cc(N2CCNC[C@H]2C)nc(Nc2ccc(C)c([N+](=O)[O-])c2)n1` [Example 122, (R)-N-(4-methyl-3-nitrophenyl)-4-(2-methylpiperazin-1-yl)-6-propylpyrimidin-2-amine] here?
A: 0.011 nM

Q: For `CCCc1cc(N2CCNC[C@H]2C)nc(Nc2ccc(F)c(N)c2)n1` [Example 123, (R)-4-fluoro-N^1-[4-(2-methylpiperazin-1-yl)-6-propylpyrimidin-2-yl]benzene-1,3-diamine], which EC50 is on record?
A: 0.121 nM

Q: How did the EC50 turn out when `CCCc1cc(N2CCNC[C@H]2C)nc(Nc2ccc(N)c(C(F)(F)F)c2)n1` [Example 124, (R)-N^1-[4-(2-methylpiperazin-1-yl)-6-propylpyrimidin-2-yl]-3-(trifluoromethyl)benzene-1,4-diamine] was run?
A: 0.028 nM

Q: How did the EC50 turn out when `CCCc1cc(N2CCNC[C@H]2C)nc(Nc2ccc(F)c(C#N)c2)n1` [Example 125, (R)-2-fluoro-5-[4-(2-methylpiperazin-1-yl)-6-propylpyrimidin-2-ylamino]benzonitrile] was run?
A: 0.051 nM
